Measurements as given in PubChem BioAssay (NCI).
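Interpolation was linear, between the two tested concentrations surrounding the appropriate level; five concentrations were tested over 48 hours in 96-well plates. TGI is the concentration that stops growth completely.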

Experiments:
Assay in all cases: NCI anticancer screen, dose series, 48 h
[1] = system: UACC-62 melanoma
[2] = system: MOLT-4 leukemia
[3] = system: HOP-62 NSCLC
[4] = system: SN12C renal
[5] = system: SW-620 colon
[6] = system: SF-295 CNS
[7] = system: A498 renal
[8] = system: COLO 205 colon
[9] = system: NCI-H226 lung
[10] = system: U251 CNS
[11] = system: NCI-H23 lung
[12] = system: SF-268 CNS
[13] = system: MDA-MB-231 breast
[14] = system: OVCAR-4 ovarian
[15] = system: OVCAR-5 ovarian
[16] = system: SR leukemia
[17] = system: TK-10 renal
[18] = system: M14 melanoma
[19] = system: OVCAR-3 ovarian
[20] = system: MDA-N

SMILES | TGI [1] [µM] | TGI [2] [µM] | TGI [3] [µM] | TGI [4] [µM] | TGI [5] [µM] | TGI [6] [µM] | TGI [7] [µM] | TGI [8] [µM] | TGI [9] [µM] | TGI [10] [µM] | TGI [11] [µM] | TGI [12] [µM] | TGI [13] [µM] | TGI [14] [µM] | TGI [15] [µM] | TGI [16] [µM] | TGI [17] [µM] | TGI [18] [µM] | TGI [19] [µM] | TGI [20] [µM]
O/C(=C\c1nc2ccccc2nc1/C=C(\O)c1ccc(Cl)cc1)c1ccccc1 | > 100 | 40.9 | > 100 | > 100 | > 100 | > 100 | > 100 | > 100 | > 100 | > 100 | > 100 | > 100 | > 100 | > 100 | > 100 | > 100 | > 100 | > 100 | – | –
Nc1nc(N)c(C2=CCNCC2)c(=O)[nH]1 | > 100 | > 100 | > 100 | > 100 | > 100 | > 100 | > 100 | > 100 | > 100 | > 100 | > 100 | > 100 | > 100 | > 100 | > 100 | > 100 | – | > 100 | > 100 | –
CSc1nc(Cl)c(Br)c(Sc2nc(N)nc3nc[nH]c23)n1 | 14.2 | 18.9 | 8.69 | – | 25.3 | 17.7 | – | 33.8 | 22.3 | 16.4 | 24 | 14.9 | – | 23.3 | 24.1 | 14.1 | 20.9 | 15.3 | 29 | –
Clc1ccc2c(c1)C1C(CO2)C(c2ccccc2)=NN1c1ccccc1 (stereo not given) | – | 62.6 | > 100 | – | > 100 | > 100 | > 100 | > 100 | – | > 100 | 99.8 | > 100 | – | – | > 100 | – | > 100 | – | > 100 | –
COc1cc(/C=C(\C#N)C(=O)c2ccccc2)ccc1O | > 100 | > 100 | > 100 | > 100 | > 100 | > 100 | > 100 | > 100 | > 100 | > 100 | > 100 | > 100 | – | > 100 | > 100 | > 100 | > 100 | > 100 | > 100 | –
Cn1nc2ccc3nccc(N4CCN(CCO)CC4)c3c2n1 | > 100 | > 100 | > 100 | > 100 | > 100 | > 100 | > 100 | > 100 | > 100 | > 100 | > 100 | > 100 | > 100 | > 100 | > 100 | – | > 100 | > 100 | > 100 | > 100
CC1(C)O[C@@H]2[C@@H](COC(=O)c3ccccc3)C[C@@H](C#N)[C@@H]2O1 | > 100 | > 100 | > 100 | > 100 | > 100 | > 100 | > 100 | > 100 | > 100 | > 100 | > 100 | > 100 | > 100 | > 100 | > 100 | > 100 | > 100 | > 100 | > 100 | –
Nc1ccc2nc(Nc3ccc(F)cc3)cnc2c1 | – | > 100 | > 100 | > 100 | > 100 | > 100 | – | > 100 | > 100 | – | – | > 100 | – | > 100 | > 100 | > 100 | > 100 | > 100 | > 100 | –
CC(=O)OC1COC(Nc2ccc(C(C)=O)cc2)C(OC(C)=O)C1OC(C)=O (stereo not given) | > 100 | > 100 | > 100 | > 100 | > 100 | > 100 | > 100 | > 100 | > 100 | > 100 | > 100 | > 100 | – | > 100 | – | > 100 | > 100 | > 100 | > 100 | –
CN(C(=O)C12C3C4C1C1C4(C(=O)C45C6C7C4C4C5C6C74C)C3C12C)C(C)(C)C (stereo not given) | > 100 | > 100 | > 100 | > 100 | > 100 | > 100 | > 100 | > 100 | > 100 | > 100 | > 100 | > 100 | – | – | > 100 | > 100 | > 100 | > 100 | – | –
COC(=O)c1ccccc1C1CN=NC12Cc1ccc(C)c(C)c1C2=O (stereo not given) | > 100 | > 100 | > 100 | > 100 | > 100 | > 100 | > 100 | > 100 | > 100 | > 100 | > 100 | > 100 | > 100 | > 100 | > 100 | – | > 100 | > 100 | > 100 | > 100
N#Cc1c(O)c(N=Nc2ccccc2F)c(=O)n2c1[nH]c1ccccc12 | > 100 | – | > 100 | > 100 | > 100 | > 100 | > 100 | > 100 | > 100 | > 100 | > 100 | > 100 | 90.8 | > 100 | > 100 | – | > 100 | > 100 | > 100 | > 100
Cc1ccc2ccccc2c1NC1=NCCO1 | > 100 | > 100 | > 100 | > 100 | > 100 | > 100 | – | > 100 | 74.5 | > 100 | > 100 | > 100 | > 100 | > 100 | > 100 | > 100 | > 100 | > 100 | – | –
CC(C)(C)c1cc(-c2cc(C(C)(C)C)n(-c3ccccc3)n2)nn1-c1ccccc1 | > 100 | > 100 | > 100 | > 100 | > 100 | > 100 | > 100 | > 100 | > 100 | > 100 | > 100 | > 100 | > 100 | > 100 | > 100 | > 100 | > 100 | > 100 | > 100 | –
